# Results taken from publication PMC8692993, “PPARα and PPARγ activation is associated with pleural mesothelioma invasion but therapeutic inhibition is ineffective” (iScience, 2021).
# Columns and labels:
# [1] = Mouse pharmacokinetic study, plasma exposure after IP dosing; format: in vivo, BALB/c mice; settings: IP 10 mg/kg; for Cmax / Plasma AUC0–24 h: female BALB/c mice
# Protocol: Pharmacokinetic animal studies were conducted using established procedures in accordance with the Australian Code of Practice for the Care and Use of Animals for Scientific Purposes, and the study protocols were reviewed and approved by the Monash Institute of Pharmaceutical Sciences Animal Ethics Committee. The systemic exposure of GW6471 was studied in non-fasted female BALB/c mice (5 - 8 weeks) weighing 15.2–22.6 g. Mice had access to food and water ad libitum throughout the pre- and post-dose sampling period. GW6471 (10 mg/kg) was dosed to all mice via a single intraperitoneal (IP) injection (5 mL/kg). For the ABT pre-treated group, ABT was pre-dosed to animals at 50 mg/kg via IP injection (5 mL/kg) 2 h prior to administration of GW6471. Following IP administration of GW6471, blood samples were collected up to 24 h at indicated time points (n = 3 mice per time point) with a maximum of three samples from each mouse. Blood samples were collected via submandibular bleed (approximately 120 μL) into polypropylene Eppendorf tubes containing heparin as anticoagulant and stabilisation cocktail (containing the protease inhibitor cocktail Complete® and KF) to minimise the potential for ex vivo compound degradation in blood/plasma samples. Once collected, blood samples were centrifuged immediately, supernatant plasma was removed, and stored at−80°C until analysis by liquid chromatography-mass spectrometry (LC–MS). The plasma concentration versus time profile was defined by the average plasma concentration at each sample time, and PK parameters were calculated using non-compartmental methods (PKSolver Version 2.0).
# Compound quantification was performed using a Xevo G2 QTOF (in vitro metabolic stability) using positive electrospray ionisation under MS^E mode or a Waters Xevo TQD (mouse exposure) mass spectrometer using positive electrospray ionisation multiple-reaction monitoring mode. Compounds were eluted using an acetonitrile-water/0.05% formic acid gradient at a flow rate of 0.4 mL/min operating over a 4 min cycle on a Waters Acquity UPLC using a Supelco Ascentis Express RP C8 column (50 × 2.1 mm, 2.7 μm). Extraction was performed by precipitation using acetonitrile (1:1 volume ratio for microsomes and 2:1 volume ratio for plasma samples) followed by centrifugation. Compound concentrations were quantified against calibration standards prepared in an appropriate matrix to match the test samples (e.g. plasma or microsomes).
# ABT Formulation: On the evening prior to dosing, ABT was dissolved in a 0.9% (w/v) saline using vortexing and sonicating, resulting in a colourless solution. The nominal concentration of ABT in the formulation was 10 mg/mL. GW6471 Formulation: The final drug contains 40% final volume of PEG400 (Kollisolv PEG E 400, Sigma Aldrich), and 60% final volume of Solutol HS-15 (Kolliphor HS-15, Sigma Aldrich). Solutol is previously mixed in a saline solution (12.5% concentration). On the day of dosing, the solid GW6471 was first dissolved in PEG400by thoroughly vortexing and sonicating for 5 min. Then, the saline solution containing Solutol HS-15 12.5% was added. Again, the formulation was then thoroughly vortexed and sonicated to produce a hazy pale yellow suspension with an apparent pH of 3.4. The nominal concentration of GW6471 in the formulation was 2 mg/mL. […] The dose administered to each mouse was calculated on the basis of the mouse body weight (determined prior to dosing).
# AB1-Luc = experiment: Intraperitoneal AB1-Luc mesothelioma model, bioluminescence and histology; format: in vivo, BALB/c mice; settings: for Tumor growth (bioluminescence, average radiance): versus controls
# Protocol: Cells were trypsinized and washed two times in phosphate buffer saline (PBS) and counted with trypan blue dye. For the SC tumour model, mice were shaved on the right-hand flank and inoculated with 5x10^5 AB1 or 1x10^6 AE17 cells suspended in 100 μL PBS. Tumour volume (mm^3) was monitored with callipers. For the IPL tumour model, mice were anaesthetised under continuous isofluorane and inoculated with 5 x 10^5 AB1 or 1 x 10^6 AE17 cells suspended in 200 μL PBS into the pleural space as previously described ([Lansley et al., 2015]) Tumour size was determined by weighting together the tumour with the lungs minus the weight of aged matched healthy lungs. For the IP tumour model, mice where inoculated in the intraperitoneal cavity on the right flank with 5x10^5 AB1-Luc cells suspended in 200 μL PBS. Tumour size was determined by in vivo imaging system (IVIS), see below. All mice were euthanized in accordance with animal ethics guidelines.
# Female BALB/cJAusb mice (10–12 weeks) were inoculated IP with 5 x 10^5 AB1-Luc on their right flank. Mice were randomly allocated to the different groups on the first treatment day. Treatment with ABT + GW6471 or GW6471 alone started on day 4 after tumour inoculation. IP Injections and concentrations were used as previously described in the “Mouse pharmacokinetic studies” section in experimental model and subject details. Initial mouse weight was measured immediately before the first injection, and it was used to calculate weight change daily. Mice were dosed for a maximum of seven consecutive days. In vivo imaging system (IVIS) (see below) was performed on days 3 (before treatment), 7 (during treatment) and 11 (after treatment). Mice were euthanized on day 11 in accordance with animal ethics guidelines and organs were harvested for staining.
# XenoLight D-Luciferin potassium salt (PerkinElmer, VIC, Australia) was used at a 150 mg/kg concentration dissolved in sterile PBS. Approximately 150 μL (15 mg/mL concentration) was injected subcutaneously per mouse. […]
# [2] = ABT 50 mg/kg IP 2 h before (ABT + GW6471)
compound,measurement,setting,value
CCC(=O)NC[C@H](Cc1ccc(OCCc2nc(-c3ccccc3)oc2C)cc1)N/C(C)=C\C(=O)c1ccc(C(F)(F)F)cc1 [GW6471],Increase of plasma concentration with ABT pre-treatment (based on AUC and Cmax),[1]; ABT pre-treatment versus none,approximately 3 fold
same,Cmax,[1]; [2],3.6 µM
same,Plasma AUC0–24 h,[1]; [2],31.4 h∗μM
same,Cmax,[1]; without ABT,1.18 µM
same,Plasma AUC0–24 h,[1]; without ABT,9.81 h∗μM
same,"Tumor growth (bioluminescence, average radiance)","AB1-Luc; GW6471 10 mg/kg IP daily from day 4, with ABT 50 mg/kg pre-treatment (ABT + GW6471)",no significant effect on tumor growth
same,"Tumor growth (bioluminescence, average radiance)","AB1-Luc; GW6471 10 mg/kg IP daily from day 4, without ABT",no significant effect on tumor growth
same,Mesothelioma invasion and proliferation in vivo (histology),"AB1-Luc; GW6471 with or without ABT, all mice showed invasion into intestine and pancreas",no impact on mesothelioma invasion and proliferation in vivo
